# Test results taken from ChEMBL document CHEMBL4342421, “Current scenario of tetrazole hybrids for antibacterial activity” (Eur J Med Chem, 2019).
# Key:
# Pseudomonas aeruginosa [1] = assay: Antimicrobial activity against Pseudomonas aeruginosa assessed as zone of inhibition at 50 ug/ml; type: functional; details: read-out: IZ
# Escherichia coli [2] = assay: Antimicrobial activity against Escherichia coli assessed as zone of inhibition at 50 ug/ml; type: functional; details: read-out: IZ
# Bacillus subtilis [3] = assay: Antimicrobial activity against Bacillus subtilis assessed as zone of inhibition at 50 ug/ml; type: functional; details: read-out: IZ
# Candida albicans [4] = assay: Antifungal activity against Candida albicans assessed as zone of inhibition at 50 ug/ml; type: functional; details: read-out: IZ
# Aspergillus fumigatus = assay: Antifungal activity against Aspergillus fumigatus assessed as zone of inhibition at 50 ug/ml; type: functional; details: read-out: IZ
# Staphylococcus aureus [5] = assay: Antimicrobial activity against Staphylococcus aureus assessed as zone of inhibition at 50 ug/ml; type: functional; details: read-out: IZ
# Aspergillus niger [6] = assay: Antifungal activity against Aspergillus niger assessed as zone of inhibition at 50 ug/ml; type: functional; details: read-out: IZ
# Bacillus cereus [7] = assay: Antimicrobial activity against Bacillus cereus assessed as zone of inhibition at 250 ug/ml; type: functional; details: read-out: IZ
# Escherichia coli [8] = assay: Antimicrobial activity against Escherichia coli assessed as zone of inhibition at 250 ug/ml; type: functional; details: read-out: IZ
# Bacillus cereus [9] = assay: Antimicrobial activity against Bacillus cereus; type: functional
# Pseudomonas aeruginosa [10] = assay: Antimicrobial activity against Pseudomonas aeruginosa assessed as zone of inhibition at 250 ug/ml; type: functional; details: read-out: IZ
# Staphylococcus aureus [11] = assay: Antimicrobial activity against Staphylococcus aureus assessed as zone of inhibition at 250 ug/ml; type: functional; details: read-out: IZ
# Candida albicans [12] = assay: Antifungal activity against Candida albicans; type: functional
# Staphylococcus aureus [13] = assay: Antimicrobial activity against Staphylococcus aureus; type: functional
# Aspergillus niger [14] = assay: Antifungal activity against Aspergillus niger; type: functional
# Escherichia coli [15] = assay: Antimicrobial activity against Escherichia coli; type: functional
# Pseudomonas aeruginosa [16] = assay: Antimicrobial activity against Pseudomonas aeruginosa; type: functional
# Aspergillus niger [17] = assay: Antifungal activity against Aspergillus niger assessed as zone of inhibition at 250 ug/ml; type: functional; details: read-out: IZ
# Candida albicans [18] = assay: Antifungal activity against Candida albicans assessed as zone of inhibition at 250 ug/ml; type: functional; details: read-out: IZ
# Salmonella typhimurium = assay: Antimicrobial activity against Salmonella typhimurium; type: functional, Salmonella enterica subsp. enterica serovar Typhimurium; details: Salmonella enterica
# Bacillus subtilis [19] = assay: Antimicrobial activity against Bacillus subtilis; type: functional
Compound,zone of inhibition at 50 µg/mL (Pseudomonas aeruginosa [1]) [mm],zone of inhibition at 50 µg/mL (Escherichia coli [2]) [mm],zone of inhibition at 50 µg/mL (Bacillus subtilis [3]) [mm],zone of inhibition at 50 µg/mL (Candida albicans [4]) [mm],zone of inhibition at 50 µg/mL (Aspergillus fumigatus) [mm],zone of inhibition at 50 µg/mL (Staphylococcus aureus [5]) [mm],also measured
Clc1ccc(-n2nnnc2-c2cccnc2)cc1,10 to 22,10 to 22,10 to 22,10 to 22,10 to 22,10 to 22,
Clc1cccc(-n2nnnc2-c2cccnc2)c1Cl,10 to 22,10 to 22,10 to 22,10 to 22,10 to 22,10 to 22,
COc1ccccc1-n1nnnc1-c1cccnc1,10 to 22,10 to 22,10 to 22,10 to 22,10 to 22,10 to 22,
O=C(/C=C/c1ccc(Br)cc1)n1nnnc1-c1ccccc1,,8 to 15,,8 to 15,,8 to 15,zone of inhibition at 50 µg/mL (Aspergillus niger [6]): 8 to 15 mm
O=C(/C=C/c1ccccc1)n1nnnc1-c1ccccc1,,8 to 15,,8 to 15,,8 to 15,zone of inhibition at 50 µg/mL (Aspergillus niger [6]): 8 to 15 mm
Cc1ccc(-c2nnnn2-c2ccccn2)cc1,10 to 24,10 to 24,10 to 24,10 to 24,10 to 24,10 to 24,
Clc1ccc(-c2nnnn2-c2ccccn2)cc1,10 to 24,10 to 24,10 to 24,10 to 24,10 to 24,10 to 24,
Clc1ccccc1-n1nnnc1-c1cccnc1,10 to 22,10 to 22,10 to 22,10 to 22,10 to 22,10 to 22,
Oc1ccc(-c2nnnn2-c2nc3ccccc3s2)cc1O,,,,,,,zone of inhibition at 250 µg/mL (Bacillus cereus [7]): 16 to 26 mm; zone of inhibition at 250 µg/mL (Escherichia coli [8]): 16 to 26 mm; MIC (Bacillus cereus [9]): 50 to 100 µg/mL; zone of inhibition at 250 µg/mL (Pseudomonas aeruginosa [10]): 16 to 26 mm; zone of inhibition at 250 µg/mL (Staphylococcus aureus [11]): 16 to 26 mm; MIC (Candida albicans [12]): 50 to 100 µg/mL; MIC (Staphylococcus aureus [13]): 50 to 100 µg/mL; MIC (Aspergillus niger [14]): 50 to 100 µg/mL; MIC (Escherichia coli [15]): 50 to 100 µg/mL; MIC (Pseudomonas aeruginosa [16]): 50 to 100 µg/mL; zone of inhibition at 250 µg/mL (Aspergillus niger [17]): 16 to 26 mm; zone of inhibition at 250 µg/mL (Candida albicans [18]): 16 to 26 mm
COc1ccc(-n2nnnc2-c2cccnc2)cc1,10 to 22,10 to 22,10 to 22,10 to 22,10 to 22,10 to 22,
O=[N+]([O-])c1cc(-c2nnnn2-c2ccccn2)cc([N+](=O)[O-])c1,10 to 24,10 to 24,10 to 24,10 to 24,10 to 24,10 to 24,
Brc1ccc(-n2nnnc2-c2cccnc2)cc1,10 to 22,10 to 22,10 to 22,10 to 22,10 to 22,10 to 22,
c1ccc(-c2nnnn2-c2nc3ccccc3s2)cc1,,,,,,,zone of inhibition at 250 µg/mL (Bacillus cereus [7]): 16 to 26 mm; zone of inhibition at 250 µg/mL (Escherichia coli [8]): 16 to 26 mm; MIC (Bacillus cereus [9]): 50 to 100 µg/mL; zone of inhibition at 250 µg/mL (Pseudomonas aeruginosa [10]): 16 to 26 mm; zone of inhibition at 250 µg/mL (Staphylococcus aureus [11]): 16 to 26 mm; MIC (Candida albicans [12]): 50 to 100 µg/mL; MIC (Staphylococcus aureus [13]): 50 to 100 µg/mL; MIC (Aspergillus niger [14]): 50 to 100 µg/mL; MIC (Escherichia coli [15]): 50 to 100 µg/mL; MIC (Pseudomonas aeruginosa [16]): 50 to 100 µg/mL; zone of inhibition at 250 µg/mL (Aspergillus niger [17]): 16 to 26 mm; zone of inhibition at 250 µg/mL (Candida albicans [18]): 16 to 26 mm
CCCCCC(O)C(C(CCCCCCC(=O)OCCn1c([N+](=O)[O-])cnc1C)n1nnnc1C)n1nnnc1C (centres undefined),,,,,,,MIC (Salmonella typhimurium): 34 µg/mL; MIC (Bacillus subtilis [19]): 24 to 76 µg/mL; MIC (Candida albicans [12]): 124 µg/mL; MIC (Staphylococcus aureus [13]): 72 µg/mL; MIC (Escherichia coli [15]): 26 µg/mL
COc1ccc(-c2nnnn2-c2ccccn2)cc1,16 to 24,16 to 24,16 to 24,16 to 24,16 to 24,16 to 24,
Clc1ccccc1-c1nnnn1-c1ccccn1,10 to 24,10 to 24,10 to 24,10 to 24,10 to 24,10 to 24,
Cc1ccc(-n2nnnc2-c2cccnc2)cc1,10 to 22,10 to 22,10 to 22,10 to 22,10 to 22,10 to 22,
